{"source": "patent US8158389B2", "about": "“Products and methods for in vivo secretion of monatin” (priority 2005, dated 2012)", "key": {"E. coli BL21 DE3": {"test_system": "E. coli BL21 DE3", "assay": "Preliminary study: novobiocin tolerance after sodium decanoate addition", "format": "cell-based, Escherichia coli", "details": "2.5 mM sodium decanoate added to the medium", "from_the_text": "This was taken as evidence that acrAB genes are induced with sodium decanoate addition and conferred resistance to novobiocin. Rosenberg, E. Y., et al., Molecular Microbiol. 48:1609-1619, (2003)."}, "E. coli MG1655": {"test_system": "E. coli MG1655", "assay": "Monatin excretion with 2.5 mM sodium decanoate, E. coli MG1655 strains with pUC19, marA or baeR (30, 72 h)", "format": "cell-based, Escherichia coli", "from_the_text": "The strain used for the experiment was E. coli MG1655: : aspC/proA/pProNde together with the marA gene from E. coli cloned into the pUC19 vector (GenBank/EMBL accession number L09137). The control strain was E. coli MG1655: : aspC/proA/pProNde along with the pUC19 vector. The marA gene was amplified from E. coli W3110 with PCR technology (known to one skilled in the art) using the primers E. coli MarASalIF-5′[…]3′ (SEQ ID NO. 24) and E. coli MarABamHIR-5′[…]3′ (SEQ ID NO. 25). For inoculum, the E. coli strains were grown overnight at 37° C. and 250 rpm in Luria-Bertani (“LB”) medium with 100 μg/mL ampicillin and 50 μg/mL kanamycin.\nFor the experimental treatments, Trp-1+glucose medium, a minimal medium that has been used for increased production of tryptophan in E. coli cells (Zeman, et al. Folia Microbiol. 35:200-204, (1990)), was prepared as follows. To 800 mL nanopure water the following reagents were added: 2 g (NH4)2SO4 and 13.6 g KH2PO4. The pH was adjusted to 7.0, the volume was increased to 948 mL, and the medium was autoclaved. Following sterilization, 0.2 g MgSO4.7H2O, 0.01 g CaCl2.2H2O, and 0.5 mg FeSO4.7H2O were added to the medium in a 1.8 mL volume followed by addition of 0.2 mL of Neidhardt's micronutrient solution. Neidhardt F. C., et al., “Culture medium for Enterobacteria,” J. Bacteriol. 119:736-746, (1974). Neidhardt's medium includes (per liter): 0.18 g (NH4)6(MO7)24.4H2O, 1.24 g H3BO3, 0.36 g CoCl2.6H2O, 0.12 g CuSO4 (anhydrous), 0.8 g MnCl2.4H2O, and 0.14 g ZnSO4.7H2O. A 50% glucose solution was prepared separately and sterile-filtered. Forty mL of glucose solution and 10 mL of 1 M 3-Morpholinopropanesulfonic acid (“MOPS”) buffer were added to the base medium (950 mL) for a 1 L final volume.\nConditions for the treatments included 250 rpm agitation throughout and 37° C. up to induction, then, 30° C. following induction. At an OD600 nm between 0.35-0.50, induction of the plasmid genes was initiated. At induction, 1.0 mM IPTG, 0.5% L-arabinose, 0.5 mM pyridoxine hydrochloride, and 0.2 mLs of Balch's vitamins were added. Additions of 10 g/L L-tryptophan, 10 g/L sodium pyruvate, 0.04 mM pyridoxal-5′-phosphate (“PLP”) and 0.2% Tween® 20 (polyoxyethylene 20-sorbitan monolaurate) were made 3.0 hours following induction. At 24 hours after inoculation, 10 g/L of sodium pyruvate was added to each flask again. Some treatments included 2.5 mM sodium decanoate addition at 3.0 hours following induction.\nThe strains used for the experiment were E. coli. MG1655 : : aspC/proA/pProNde in combination with either baeR or no insert in the pUC19 vector. The baeR gene was amplified from E. coli W3110 by using primers, E. coli baeRSalIF 5′[…]3′ (SEQ ID NO. 26) and E. coli baeRBamHIR 5′[…]3′ (SEQ ID NO. 27), which introduced SalI and BamHI sites at the end of the amplified fragment. The PCR fragment was cloned between the SalI and BamHI sites of the vector pUC19 (GenBank/EMBL accession number L09137). For inoculum, the E. coli strains were grown overnight at 37° C. and 250 rpm in Luria-Bertani (“LB”) medium with 100 μg/mL ampicillin and 50 μg/mL kanamycin.\nFor the experimental treatments, Trp-1+glucose medium, a minimal medium that has been used for increased production of tryptophan in E. coli cells (Zeman et al. Folia Microbiol. 35:200-204, (1990)), was prepared as follows. To 800 mL nanopure water the following reagents were added: 2 g (NE4)2SO4 and 13.6 g KH2PO4. The pH was adjusted to 7.0, the volume was increased to 948 mL, and the medium was autoclaved. Following sterilization, 0.2 g MgSO4.7H2O, 0.01 g CaCl2.2H2O, and 0.5 mg FeSO4.7H2O were a to the medium in a 1.8 mL volume followed by addition of 0.2 mL of Neidhardt's micronutrient solution. Neidhardt F. C., et al., “Culture medium for Enterobacteria,” J. Bacteriol. 119:736-746 (1974). Neidhardt's medium includes (per liter): 0.18 g (NH4)6(MO7)24.4H2l O, 1.24 g H3BO3, 0.36 g CoCl2.6H2O, 0.12 g CuSO4 (anhydrous), 0.8 g MnCl2.4H2O, and 0.14 g ZnSO4.7H2O. […]"}, "[1]": {"details": "E. coli MG1655 AspC ProA pProNde del BaeR pUC19, n = 2"}, "[2]": {"details": "E. coli MG1655 AspC ProA pProNde del MarA pUC19, n = 2"}, "[3]": {"details": "E. coli MG1655 aspC proA pProNde del pUC19 (control), n = 2"}}, "data": [{"smiles": "CCCCCCCCCC(=O)[O-].[Na+]", "note": "[sodium decanoate]", "values": [{"measurement": "tolerance to novobiocin", "setting": "E. coli BL21 DE3", "result": "80 to 160", "unit": "µg/mL"}, {"measurement": "Mean monatin per dry cell weight, 30 hours", "setting": "E. coli MG1655; [1]", "result": 16.2, "unit": "mg/g"}, {"measurement": "Mean monatin per dry cell weight, 72 hours", "setting": "E. coli MG1655; [1]", "result": 66.8, "unit": "mg/g"}, {"measurement": "Mean monatin per dry cell weight, 30 hours", "setting": "E. coli MG1655; [2]", "result": 8.5, "unit": "mg/g"}, {"measurement": "Mean monatin per dry cell weight, 72 hours", "setting": "E. coli MG1655; [2]", "result": 51.9, "unit": "mg/g"}, {"measurement": "Mean monatin per dry cell weight, 30 hours", "setting": "E. coli MG1655; [3]", "result": 2.4, "unit": "mg/g"}, {"measurement": "Mean monatin per dry cell weight, 72 hours", "setting": "E. coli MG1655; [3]", "result": 2.7, "unit": "mg/g"}]}]}
